Holding throughout (assay): Bacterial susceptibility testing in liquid media (MIC)
Holding throughout (type): cell-based

Assay [1] has as its system SAU516. The settings on record: strain SAU516; lowest concentration reducing growth by 80% or more, 37 degrees C., 24 hrs. The method, then:
(§1) Compounds were tested for antimicrobial activity by susceptibility testing in liquid media. Compounds were dissolved in dimethylsulfoxide and tested in 10 doubling dilutions in the susceptibility assays. The organisms used in the assay were grown overnight on suitable agar media and then suspended in a liquid medium appropriate for the growth of the organism. The suspension was a 0.5 McFarland and a further 1 in 10 dilution was made into the same liquid medium to prepare the final organism suspension in 100 μL. Plates were incubated under appropriate conditions at 37 degrees C. for 24 hrs prior to reading. The Minimum Inhibitory Concentration was determined as the lowest drug concentration able to reduce growth by 80% or more.

Assay [2] concerns Streptococcus pneumoniae. The settings on record: lowest concentration reducing growth by 80% or more, 37 degrees C., 24 hrs; for MIC SPN548: strain SPN548. The procedure: as §1
Assay [3] relates to HIN446. The settings on record: strain HIN446; lowest concentration reducing growth by 80% or more, 37 degrees C., 24 hrs. The procedure: as §1

Usually MIC stands for the smallest concentration in the dilution series that meets the test's criterion for growth inhibition. Lower therefore signals greater potency.

In brackets after ≈: the same amount, converted by molar mass.

For `Cc1[nH]c(C(=O)NC2CN(c3ncc(C(=O)O)s3)C2)c(Cl)c1Cl` [Example 4, 2-(3-{[(3,4-Dichloro-5-methyl-1H-pyrrol-2-yl)carbonyl]amino}azetidin-1-yl)-1,3-thiazole-5-carboxylic acid], the MIC SAU516 in assay [1] was 32 µg/mL (≈ 85.3 µM). The same compound showed an MIC SPN548 in assay [2] of 4 µg/mL (≈ 10.7 µM). Further, the MIC HIN446 in assay [3] came out at 2 µg/mL (≈ 5.33 µM).

Regarding `Cc1nc(N2CC(NC(=O)c3[nH]c(C)c(Cl)c3Cl)C2)sc1C(=O)O` [Example 5, 2-(3-{[(3,4-Dichloro-5-methyl-1H-pyrrol-2-yl)carbonyl]amino}azetidin-1-yl)-4-methyl-1,3-thiazole-5-carboxylic acid], the MIC SAU516 in assay [1] was 4 µg/mL (≈ 10.3 µM). The same compound showed an MIC SPN548 in assay [2] of 0.5 µg/mL (≈ 1.28 µM). Besides, the MIC HIN446 in assay [3] came out at 0.5 µg/mL (≈ 1.28 µM).

Regarding `CONC(=O)c1cnc(N2CC(NC(=O)c3[nH]c(C)c(Cl)c3Cl)C2)s1` [Example 8, 2-(3-{[(3,4-Dichloro-5-methyl-1H-pyrrol-2-yl)carbonyl]amino}azetidin-1-yl)-N-methoxy-1,3-thiazole-5-carboxamide], in assay [1], the MIC SAU516 was 8 µg/mL (≈ 19.8 µM). Also, the MIC SPN548 in assay [2] turned out to be 1 µg/mL (≈ 2.47 µM). The compound further showed an MIC HIN446 in assay [3] of 8 µg/mL (≈ 19.8 µM).

As to `CONC(=O)c1cc(N2CC(NC(=O)c3[nH]c(C)c(Cl)c3Cl)C2)nc(Cl)n1` [Example 9, 2-Chloro-6-(3-{[(3,4-dichloro-5-methyl-1H-pyrrol-2-yl)carbonyl]amino}azetidin-1-yl)-N-methoxypyrimidine-4-carboxamide], the MIC SAU516 in assay [1] was 2 µg/mL (≈ 4.61 µM). The compound further registered an MIC in assay [2] (against Streptococcus pneumoniae) of 2 µg/mL (≈ 4.61 µM). In assay [2], this compound gave an MIC SPN548 of 2 µg/mL (≈ 4.61 µM). Moreover, the MIC HIN446 in assay [3] came to 4 µg/mL (≈ 9.22 µM).

Values taken from patent publication US20090253671A1, “TRICYCLIC DERIVATIVES OF AZETIDINE AND PYRROLE WITH ANTIBACTERIAL ACTIVITY” (ASTRAZENECA AB, priority 2005, published 2009).
